According to publication PMC4754331, “Programming of metabolic effects in C57BL/6JxFVB mice by in utero and lactational exposure to perfluorooctanoic acid” (Archives of Toxicology, 2015):
Read-outs that look alike come from different tables or passages of the source.

Key:
[1] = test system: C57BL/6JxFVB hybrid mice; experiment: Tibia composition/function by pQCT; format: in vivo; settings: for Emax: Mus musculus
[2] = Tolerable daily intake and human dietary exposure; design: species or system humans
[3] = test system: C57BL/6JxFVB hybrid mice; experiment: Glucose tolerance test; format: in vivo; settings: males and females; 300 µg/kg vs control; 19 weeks; data not shown
Method: One week later, at 20 weeks of age, an insulin tolerance test (ITT) was performed in the same animals as used for the GTT. Mice were not fasted to avoid low glucose baseline levels which, after an insulin injection, could lead to hypoglycemia. At the start of the experiment, a baseline blood sample was taken (0 min). […] The experiment was performed over two morning sessions, with 1.75 h between the first and last tested animal in each session, and animals were treated in a random order. At the age of 22–25 weeks, control and 300 µg/kg bw/d animals were used for a spontaneous locomotor activity test. After an acclimatization period of minimal 6 h, activity of the mice was continuously registered on four parallel platforms for 36 h (males) or 60 h (females), starting at the beginning of the dark phase (6.30 PM) of the first day.
Some measurements included only control and one or two dose groups and could therefore not be analyzed as dose–responses. GTT was therefore evaluated by repeated-measures or nested (to account for litter covariance) two-way ANOVAs (Graphpad Prism 5.0, R) to detect differences at the different time points and between the areas under the curve (AUC). Activity measurement, ucp1 expression, WAT adipocyte size and the proxy for cell number were also tested with a nested ANOVA (R). […]

[4] = test system: F0 C57BL/6J mice; experiment: Perinatal dietary exposure: general toxicity and reproduction parameters (litter size, sex ratio, survival); format: in vivo
Method: PFOA was obtained as sodium perfluoro-n-octanoate (PFOA-Na; CAS No. 335-95-5, purity >99 %) and kindly provided by Wellington Laboratories Inc., Ontario, Canada. PFOA-Na was dissolved in acetone and mixed with the diet (NIH-07, Research Diet Services, Wijk bij Duurstede, The Netherlands). Thereafter, acetone was allowed to evaporate, and this master mixture was serially diluted with a factor 3–3.3 by adding NIH-07, and afterward, the diet was pelleted. In this way, seven diet groups and a control NIH-07 (blank acetone was added) were obtained, aiming at concentrations of 0, 0.017, 0.056, 0.17, 0.56, 1.7, 5.6 and 17 mg/kg PFOA in feed, which corresponded to 0, 3, 10, 30, 100, 300, 1000 and 3000 µg/kg bw based on an average food consumption of 4.5 g per mouse (average body weight of 25 g) per day. PFOA concentrations in test diets were confirmed by isotope dilution liquid chromatography mass spectrometry after extraction with methanol (8402, JT Baker, Deventer the Netherlands) and a cleanup with carbon solid phase extraction (ENVI Carb, 57210-U, Supelco, Zwijndrecht, the Netherlands). Actual PFOA concentrations in the food were 15–30 % lower than the nominal values. The non-purified soy-based NIH-07 was chosen because it was originally designed to optimize gestation, lactation and growth of rodents, and avoiding natural phytoestrogens in the diet may have confounding effects (Ruhlen et al. [2008]). Estrogenic and anti-estrogenic activity for this diet was previously analyzed to be low and absent, respectively (van Esterik et al. [2014]).
Nulliparous female C57BL/6J mice (Charles River, Sulzfeld, Germany) were mated with male FVB mice (GPL, Bilthoven, The Netherlands) to produce hybrid offspring, for which comprehensive background information of phenotype and development is available (Dollé et al. [2011]). Mice were maintained under specific pathogen-free conditions with a target ambient temperature of 21 °C, humidity of 60 % and with a 12/12 h light/dark cycle. F0 males were single-housed in standard Macrolon type II cages and were fed standard laboratory chow (CRM, Tecnilab-BMI, Someren, The Netherlands). To avoid interference from environmental bisphenol A (van Esterik et al. [2014]), F0 females and their pups during lactation were housed in polysulfone cages (Tecnilab-BMI, Someren, The Netherlands), and drinking water was supplied in glass bottles with rubber stoppers. Cages had spruce/fir wood bedding (Lignocel S 8-15; Tecnilab-BMI, Someren, The Netherlands) and aspen wood shavings (Lignocel 9 S) for cage enrichment. Both feed and water were supplied ad libitum.
After an acclimatization period of 1 week, female F0 mice were fed experimental diets explained above starting 2 weeks before mating and continued during mating (1 week), gestation (3 weeks) and lactation (3 weeks). Each dose group had six F0 females, which were mated three by three with two F0 males for each dose group. […] For every dose group, on average 9 mice per sex (range 6–10) were included for follow-up through juvenile and adult stages, selecting pups proportionally from available litters. F1 males were single-housed, and F1 females were housed in pairs from the same litter in standard Macrolon type I cages. Body weight was measured at postnatal day (PND) 4, 7, 14 and 21 and weekly from 5 weeks of age continuing until the end of the study. Food consumption could not be recorded reliably due to high spillage.

[5] = test system: C57BL/6JxFVB hybrid mice; experiment: White adipose tissue adipocyte size and number (perirenal fat pad); format: in vivo; settings: for White adipose tissue cell number: data not shown; for White adipose tissue adipocyte cell size: perirenal fat pad, 300 and 3000 combined
Method: (§1) Some measurements included only control and one or two dose groups and could therefore not be analyzed as dose–responses. GTT was therefore evaluated by repeated-measures or nested (to account for litter covariance) two-way ANOVAs (Graphpad Prism 5.0, R) to detect differences at the different time points and between the areas under the curve (AUC). Activity measurement, ucp1 expression, WAT adipocyte size and the proxy for cell number were also tested with a nested ANOVA (R). Differences in distribution of BAT histopathology scores between experimental groups were tested for statistical significance in a two-tailed Fisher’s exact test.

[6] = test system: ucp1; experiment: ucp1 gene expression in brown adipose tissue (qPCR); format: in vivo, mice; settings: males and females; 300 and 3000 µg/kg vs control; data not shown
Method: as §1

In the case of O=C(O)C(F)(F)C(F)(F)C(F)(F)C(F)(F)C(F)(F)C(F)(F)C(F)(F)F [PFOA, Perfluorooctanoic acid], the “Tibia ability to resist torsion: BMDL” value ([1]; F1 females, CES 5 %) is reported as 917 µg/kg bw/d, the “Tibia ability to resist torsion: BMDU” value ([1]; F1 females, CES 5 %) is reported as 10,316 µg/kg bw/d and the “Tibia bending strength: BMDL” value ([1]; F1 females, CES 5 %) is reported as 888 µg/kg bw/d. For the same molecule, the “Tibia bending strength: BMDU” value ([1]; F1 females, CES 5 %) was 3371 µg/kg bw/d, the “Tibia cortical density: BMDL” value ([1]; F1 females, CES 5 %) was 2866 µg/kg bw/d and the “Tibia cortical density: BMDU” value ([1]; F1 females, CES 5 %) was 6949 µg/kg bw/d. The “Tibia trabecular area: BMDL” value ([1]; F1 females, CES 5 %) was 914 µg/kg bw/d, the “Tibia trabecular area: BMDU” value ([1]; F1 females, CES 5 %) was 3037 µg/kg bw/d and the “Tibia cortical density: BMDL” value ([1]; F1 males, CES 5 %) was 2635 µg/kg bw/d. For the same molecule, the “Tibia cortical density: BMDU” value ([1]; F1 males, CES 5 %) was 27,520 µg/kg bw/d, the Emax ([1]; F1 females, read-out: Tibia ability to resist torsion: max effect size) was -8.3% and the Emax ([1]; F1 females, read-out: Tibia bending strength: max effect size) was -9.9%. For the same molecule, the Emax ([1]; F1 females, read-out: Tibia cortical density: max effect size) was -3.7%, the Emax ([1]; F1 females, read-out: Tibia trabecular area: max effect size) was -10% and the Emax ([1]; F1 males, read-out: Tibia cortical density: max effect size) was -3.4%. For the same molecule, the “Factor by which the lowered TDI is higher than the human dietary exposure range in infants” value [2] was 15, the “TDI when applying the developmental BMDL of 46 µg/kg bw/d” value [2] was 230 ng/kg bw/d and the “Glucose homeostasis: GTT” value [3] was “did not show an effect”. For the same molecule, the “Sex ratio or survival of the F1 generation” value ([4]; 3–3000 µg/kg bw/day) was “No effects”, the “Litter size: BMD (CED)” value ([4]; F0 dams exposed via diet 2 weeks before mating until PND21) was 445 µg/kg bw/d and the “Litter size: CEDL” value ([4]; Fig. 1, unit from legend) was 299.1 µg/kg body weight/day. The “Litter size: CEDU” value ([4]; Fig. 1, unit from legend) was 873 µg/kg body weight/day, the “General toxicity in dams (survival, body weight, weight gain during gestation)” value ([4]; dietary exposure 3–3000 µg/kg bw/day) was “no effect” and the “White adipose tissue cell number” value ([5]; females) was “did not differ”. For the same molecule, the “White adipose tissue adipocyte cell size” value ([5]; females, p < 0.05) was “significantly decreased”, the “White adipose tissue cell number” value ([5]; males) was “no differences” and the “White adipose tissue adipocyte cell size” value ([5]; males) was “no differences”. The “ucp1 expression in brown adipose tissue” value [6] was “did not show an effect”.
